Measurements: PMC3174198, “Virtual High-Throughput Screening Identifies Mycophenolic Acid as a Novel RNA Capping Inhibitor” (PLoS ONE, 2011)

Tests used:
[1] = biological target: T1, GTase of S. cerevisiae (Ceg1 protein) (Saccharomyces cerevisiae, UniProt Q01159); test: First step of GTase reaction: enzyme-GMP covalent complex formation; assay type: biochemical
T1 construct: made in house
T1 sequence (Q01159 1-459): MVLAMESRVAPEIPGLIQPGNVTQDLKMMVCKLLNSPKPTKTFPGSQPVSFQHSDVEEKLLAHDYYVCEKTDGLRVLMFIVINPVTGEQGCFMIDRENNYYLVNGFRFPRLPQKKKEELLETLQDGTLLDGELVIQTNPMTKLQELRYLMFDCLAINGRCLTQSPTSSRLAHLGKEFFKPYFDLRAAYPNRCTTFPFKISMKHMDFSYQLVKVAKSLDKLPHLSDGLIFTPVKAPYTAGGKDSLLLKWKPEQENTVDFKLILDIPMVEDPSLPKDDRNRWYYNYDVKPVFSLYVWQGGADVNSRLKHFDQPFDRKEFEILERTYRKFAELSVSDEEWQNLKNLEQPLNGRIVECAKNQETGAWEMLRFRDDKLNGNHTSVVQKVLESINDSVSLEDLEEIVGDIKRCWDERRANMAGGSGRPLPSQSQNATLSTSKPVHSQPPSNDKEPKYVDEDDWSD
Experimental: The assay was performed by incubating the enzyme (0.1 µM) with 10 µM [α-^32P]GTP in a buffer containing 50 mM Tris-HCl, pH 8, 5 mM DTT, and 5 mM MgCl2 for 5 min at 30°C. […] The reactions were analyzed by electrophoresis through a 12.5% polyacrylamide gel containing 0.1% SDS. The radiolabeled proteins were visualized by autoradiography of the gel.
(§1) Figure 2 Mycophenolic acid inhibits the RNA guanylyltransferase activity. (A) Molecular structure of mycophenolic acid (MPA). (B) Increasing concentrations of MPA inhibit the complete RNA guanylyltransferase reaction. […] The reaction products were analyzed on a denaturing polyacrylamide gel and quantified (right side of the panel). (C) MPA is not a potent inhibitor of the first step of the GTase reaction. […] (D) The second step of the GTase reaction is inhibited by MPA. […] Formation of the radiolabeled capped GpppRNA was monitored following electrophoresis on a denaturant polyacrylamide gel.

[2] = biological target: T2, RNA guanylyltransferase from vaccinia virus (D1R) (Vaccinia virus, UniProt P04298); test: biochemical
T2 construct: made in house

S. cerevisiae cells = test: Primer extension analysis of SSA1 mRNA 5' ends (RNA cap formation in cells); assay type: cell-based; settings: 500 µg/ml MPA for 3 h
[3] = biological target: T3, Chlorella virus DNA ligase (Paramecium bursaria Chlorella virus 1, UniProt O41026); test: Second step of ligation: AMP transfer to 5'-phosphate DNA (1-nt gapped substrate); assay type: biochemical; settings: enzyme pre-incubated with ATP; 1-nt gapped DNA substrate
Text: (§2) An autoradiogram of the gel is shown.

[4] = biological target: T4, yeast GTase enzyme-GMP complex (Saccharomyces cerevisiae, UniProt Q01159); test: UV-crosslinking of radiolabelled RNA to the enzyme-GMP complex; set-up: species or system S. cerevisiae; settings: 81 nt 5'-triphosphate radiolabelled RNA (3 µM), read-out: IC50 for inhibition of RNA binding to the enzyme-GMP complex
T4 construct: made in house
Experimental: UV-crosslinking between the internally ^32P-labeled RNA of 81 nt and the yeast GTase was performed in a crosslink buffer (50 mM Tris pH 7.5, 5 mM DTT, 5 mM MgCl2). The protein (12 µM) was incubated with GTP (1 mM) and different concentrations of MPA for 10 minutes at 30°C. The radiolabeled RNA (3 µM) was added to the reaction mixture and incubated for 5 minutes at 30°C. The reaction mixture was exposed to UV light (254 nm, 20 Joules/cm^2) for 5 min at 30°C using a Stratalinker 2400 UV Crosslinker (Stratagene). The crosslink mixture was denatured (50 mM Tris-HCl, pH 7.0, 5% sucrose, 5% b-mercaptoethanol, 2% SDS) and separated by electrophoresis on a 12% SDS-PAGE. The gel was analyzed by phosphorimaging.
It is tempting to speculate that the opening of the active site of the enzyme that is normally observed following the hydrolysis of GTP to produce the enzyme-GMP covalent intermediate is inhibited by MPA. Following the formation of the GMP adduct, the enzyme must open up to provide access for the incoming mRNA substrate, since this site is blocked off in the closed form of the enzyme. […] In order to validate this hypothesis, cross-linking assays were used to monitor the binding of radiolabelled RNA to the enzyme-GMP complex with or without MPA. […]
Figure 5 Binding of MPA to the enzyme-GMP complex inhibits the interaction with RNA. […] (B) The reaction products were quantified by phosphorimaging.

[5] = biological target: T5, human RNA guanylyltransferase (HCE) (Homo sapiens, UniProt O60942); test: First and second step of the GTase reaction, human enzyme; assay type: biochemical; settings: enzyme-GMP formation
T5 construct: made in house

RNA guanylyltransferase = biological target: T6, RNA guanylyltransferase (Saccharomyces cerevisiae, UniProt Q01159); test: Substrate test: capillary electrophoresis of enzyme adduct and TLC of RNA capping products; assay type: biochemical, S. cerevisiae; settings: 1 mM MPA
T6 construct: made in house
T6 sequence (Q01159 1-459): T1 sequence (Q01159 1-459)
Text: In the typical GTase reaction, the nucleophilic attack on the α-phosphate of GTP by the enzyme during the first step of the reaction results in the formation of a covalent intermediate in which GMP is linked via a phosphoamide bond to a lysine residue of the enzyme. […] Although MPA is not a nucleoside analog per se, we were still interested to monitor its ability to potentially be used as a substrate by the enzyme. The appearance of a slower migrating protein species is traditionally observed upon electrophoresis through a polyacrylamide gel when an RNA capping enzyme is incubated with GTP [25]. This slower migrating species corresponds to the enzyme with covalently bound GMP. We therefore incubated the enzyme in the presence of GTP or MPA and the polypeptide was analyzed by capillary electrophoresis. […] Aliquots of the RNA samples were then digested with nuclease P1 and alkaline phosphatase and analyzed by polyethyleneimine-cellulose thin layer chromatography (Fig. 3B).
(A) Capillary electrophoresis analysis of the RNA capping reaction. The GTase reactions were performed in the presence of the purified enzyme (1 µM) and GTP (1 mM) or MPA (1 mM), and the reaction products were analyzed by capillary electrophoresis. […] The reaction products were analyzed by thin layer chromatography on a polyethyleneimine-cellulose plate developed with 0.5 M LiCl and 1 M formic acid. […]

[6] = biological target: T7, RNA guanylyltransferase from Chlorella virus (A103R) (Paramecium bursaria Chlorella virus 1, UniProt Q84424); test: First and second step of the GTase reaction, Chlorella enzyme; assay type: biochemical
T7 construct: made in house

[7] = biological target: T3, Chlorella virus DNA ligase; test: Ligation assay: strand joining of nicked DNA duplex (complete reaction)
[8] = biological target: T1, GTase of S. cerevisiae (Ceg1 protein); test: Complete RNA guanylyltransferase reaction (both steps), standard GTase assay; assay type: biochemical
[9] = biological target: T3, Chlorella virus DNA ligase; test: First step of ligation: enzyme-AMP covalent complex formation; assay type: biochemical
Text: as §2

[10] = biological target: T1, GTase of S. cerevisiae (Ceg1 protein); test: Second step of GTase reaction: transfer of GMP onto acceptor RNA; assay type: biochemical; settings: enzyme pre-incubated with GTP, then acceptor 5'-diphosphate RNA added with MPA
Experimental: as §1

T3 sequence (O41026 entry or part of it): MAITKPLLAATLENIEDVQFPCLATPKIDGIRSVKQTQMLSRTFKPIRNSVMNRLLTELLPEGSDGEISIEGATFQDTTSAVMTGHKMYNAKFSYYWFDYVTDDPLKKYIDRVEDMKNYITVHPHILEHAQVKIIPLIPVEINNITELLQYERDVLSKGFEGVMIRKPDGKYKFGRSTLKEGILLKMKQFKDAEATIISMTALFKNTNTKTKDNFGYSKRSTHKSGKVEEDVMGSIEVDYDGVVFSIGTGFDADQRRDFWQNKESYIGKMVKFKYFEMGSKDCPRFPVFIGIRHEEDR
T7 sequence (Q84424 whole entry, stated change not applied): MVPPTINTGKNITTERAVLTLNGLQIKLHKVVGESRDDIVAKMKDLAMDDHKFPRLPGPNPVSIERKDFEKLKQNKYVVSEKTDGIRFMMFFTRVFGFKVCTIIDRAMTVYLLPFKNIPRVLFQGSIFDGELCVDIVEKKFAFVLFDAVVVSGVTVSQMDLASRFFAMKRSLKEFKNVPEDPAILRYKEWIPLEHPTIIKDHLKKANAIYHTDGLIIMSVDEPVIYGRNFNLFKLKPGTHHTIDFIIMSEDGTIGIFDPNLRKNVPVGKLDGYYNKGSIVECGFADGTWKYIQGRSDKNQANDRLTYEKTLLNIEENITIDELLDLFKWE
T5 sequence (O60942 whole entry): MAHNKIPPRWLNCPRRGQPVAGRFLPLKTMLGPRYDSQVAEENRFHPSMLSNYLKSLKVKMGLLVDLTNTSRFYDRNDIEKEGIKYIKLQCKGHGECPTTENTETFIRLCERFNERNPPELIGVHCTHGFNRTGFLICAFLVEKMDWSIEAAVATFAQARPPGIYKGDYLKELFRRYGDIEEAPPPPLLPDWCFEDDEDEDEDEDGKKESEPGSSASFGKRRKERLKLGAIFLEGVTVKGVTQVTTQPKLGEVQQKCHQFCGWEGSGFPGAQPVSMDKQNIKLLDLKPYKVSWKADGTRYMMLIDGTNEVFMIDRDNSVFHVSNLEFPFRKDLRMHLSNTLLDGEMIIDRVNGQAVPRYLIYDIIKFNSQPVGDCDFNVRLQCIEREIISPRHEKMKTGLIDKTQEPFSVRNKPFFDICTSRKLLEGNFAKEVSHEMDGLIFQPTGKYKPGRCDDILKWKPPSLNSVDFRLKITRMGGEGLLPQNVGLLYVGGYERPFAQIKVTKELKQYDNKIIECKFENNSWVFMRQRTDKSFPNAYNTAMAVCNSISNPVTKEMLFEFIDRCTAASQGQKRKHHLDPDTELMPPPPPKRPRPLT

COc1c(C)c2c(c(O)c1C/C=C(\C)CCC(=O)O)C(=O)OC2 [MPA, mycophenolic acid]
IC50 [1]: 3 mM | concentration for first step relative to amount required to inhibit the overall GTase reaction ([1]; first step IC50 / overall (both steps) IC50): 8 times | IC50 [2]: ~3 mM | reduction of cap formation (S. cerevisiae cells): 50% | IC50 [3]: 0.6 mM | IC50 [4]: 0.41 mM | IC50 [5]: ~3 mM | use as substrate by the GTase (slower migrating covalent enzyme species) (RNA guanylyltransferase; capillary electrophoresis): not a substrate | transfer to an acceptor RNA (RNA guanylyltransferase; nuclease P1 + alkaline phosphatase digestion, TLC): could not be detected | IC50 [6]: ~3 mM | IC50 [7]: 0.7 mM | IC50 [8]: 0.36 mM | inhibition at 900 µM ([8]; at 900 µM MPA, both steps, read-out: inhibition of the overall GTase activity): 80% | IC50 ([9]; enzyme-AMP covalent complex formation): ~3 mM | concentration for first step relative to amount required to inhibit the overall reaction ([9]; first step IC50 / overall ligation IC50): 4 times | IC50 [10]: 0.64 mM
